# Experimental data as given in patent US8628961B2, “Small molecule antagonists of phosphatidylinositol-3,4,5-triphosphate (PIP3) and uses thereof” (Tufts University, priority 2010, dated 2014).
# Experiments:
# PLC-δ PH domain = PLC-δ PH domain (Homo sapiens (Human), UniProt P51178); assay: PH domain translocation assay (GFP fusion); format: cell-based
# Procedure: Cells were transfected with the corresponding GFP-fusion vectors, serum starved overnight, and incubated with 100 μM PITs or PIT-1 is for 2 hr, followed by stimulation with 100 ng/ml PDGF or 250 ng/ml PMA for 5 min. The translocation was analyzed using fluorescent microscope and was quantitated by counting the number of cells with translocated PH domains in five random fields.
# apoptosis = assay: Apoptosis features: subG1 DNA content, Western blot of caspase-3 and PARP; format: cell-based
# Excerpt: Since PI3K/PIP3/Akt signaling plays a critical role in the inhibition of apoptosis (Datta S R et al. (1999) Genes Dev 13:2905-27), the possibility that PITs induce apoptosis was examined. […] Proapoptotic Bcl-2 family members Bax and Bak are important mediators of apoptosis. Wei M C et al. (2001) Science 292:727-30. […] Non-apoptotic mechanisms of cell death may also play some additional, albeit less important, role in PIT-induced killing, as some cell death was still observed in Bax/Bak-deficient cells and in the presence of zVAD.fmk.
# PLC-δ PH domain, sequence (P51178 21-130): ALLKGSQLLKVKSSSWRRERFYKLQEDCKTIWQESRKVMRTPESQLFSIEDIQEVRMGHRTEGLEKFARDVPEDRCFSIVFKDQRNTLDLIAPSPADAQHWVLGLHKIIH
smiles,measurement,setting,value
O=C(NC(=S)Nc1cc([N+](=O)[O-])cc(Cl)c1O)c1ccccc1 [PIT-1],cellular localization of PLC-δ PH domain,PLC-δ PH domain,no inhibitory effect
same,subG1 DNA content in cells,apoptosis; P<0.01,significant increase in subG1 DNA content
same,cleavage/activation of caspase-3 and processing of PARP,apoptosis; Western blot,induced the cleavage/activation
